Experimental findings from article PMC6470533, “Structure–Activity Study, Characterization, and Mechanism of Action of an Antimicrobial Peptoid D2 and Its D- and L-Peptide Analogues” (Molecules, 2019) are described below.

Data set [1] concerns Methicillin sensitive Staphylococcus pseudintermedius (26916). It counts as cell-based. Particulars: 18 h.
The subject of data set [2] is red blood cell (RBC). Particulars: 0.5% RBC suspension in PBS, 1 h, 37 °C, read at 414 nm, normalized to mellitin and PBS, triplicates.
Description: Briefly, 75 µL of peptide in PBS was mixed with 75 µL of a 0.5% red blood cell (RBC) suspension in PBS, and incubated for 1 h at 37 °C. The hemoglobin release was then measured at 414 nm and normalized, using mellitin as positive control and PBS as negative control. Experiments were done in triplicates.
For data set [3], the system named is Staphylococcus aureus (ATCC 29213). It is filed as cell-based. Particulars: ATCC 29213, 18 h.
The subject of data set [4] is Methicillin resistant Staphylococcus pseudintermedius, (C22963). It is filed as cell-based. Particulars: 18 h.
In data set [5] the test system is Pseudomonas aeruginosa (ATCC 27853). It is filed as cell-based. Particulars: ATCC 27853, 18 h. On the procedure: To explore the antimicrobial activity of the library of peptides and peptidomimetics, they were tested against Acinetobacter baumannii, Corynebacterium auriscanis, Escherichia coli, Enterococcus faecalis, Enterococcus faecium, Klebsiella pneumonia, Proteus mirabilis, and Pseudomonas aeruginosa. Bacteria grown on agar plates for 18 h at 37 °C were diluted to ~1 × 10^8 CFU/mL in Mueller–Hinton broth (MHB). Two-fold serial dilutions of peptides and peptidomimetics in MHB II were inoculated with bacteria to achieve a final concentration of 5 × 10^5 CFU/mL in polypropylene 96 U-well microtiter plates (Almeco, Esbjerg, Denmark), followed by incubation at 37 °C in ambient air for 18 h. The MIC values were determined as the lowest concentration showing no visible bacterial growth. Experiments were performed twice (in technical triplicates) on two different days.

The structures appear in SMILES notation. ≈ marks a conversion by molar mass, not a printed value. Non-standard residues stand in square brackets, D forms with d. Residues, ends and D or L forms follow the SMILES beside them. N(1-naphthylmethyl)Gly = O=C(O)CNCc1cccc2ccccc12; N(4-MeBn)Gly = Cc1ccc(CNCC(=O)O)cc1; NBuGly = CCCCNCC(=O)O; Nlys = NCCCCNCC(=O)O; Sar = CNCC(=O)O A value given as a limit tells only on which side of the number the result lay.

`CCCCN(CC(N)=O)C(=O)CN(CCCCN)C(=O)CN(Cc1cccc2ccccc12)C(=O)CN(CCCCN)C(=O)CNC(=O)CN(Cc1cccc2ccccc12)C(=O)CN(CCCCN)C(=O)CNCCCCN` [compound 4] (H-[Nlys][Nlys][N(1-naphthylmethyl)Gly]G[Nlys][N(1-naphthylmethyl)Gly][Nlys][NBuGly]-NH2; N-terminus assumed): the “MIC MSSP” value in data set [1] came out at 64 µg/mL (≈ 58.5 µM). Moreover, the “HA, percentage of hemolysis at 150 µM” value in data set [2] is reported as 40%. Also, the “MIC SA” value in data set [3] is reported as >64 µg/mL. Further, the “MIC MRSP” value in data set [4] is recorded as 32 µg/mL (≈ 29.2 µM). Moreover, the “MIC PA” value in data set [5] was >64 µg/mL.

As for `CCCCN(CC(N)=O)C(=O)CNC(=O)CN(Cc1cccc2ccccc12)C(=O)CN(CCCCN)C(=O)CN(Cc1ccc(C)cc1)C(=O)CN(Cc1cccc2ccccc12)C(=O)CN(CCCCN)C(=O)CNCCCCN` [compound 7] (H-[Nlys][Nlys][N(1-naphthylmethyl)Gly][N(4-MeBn)Gly][Nlys][N(1-naphthylmethyl)Gly]G[NBuGly]-NH2; N-terminus assumed), the “MIC MSSP” value in data set [1] is listed as 8 µg/mL (≈ 7.1 µM). Also, the “HA, percentage of hemolysis at 150 µM” value in data set [2] was 85%. In data set [3], the “MIC SA” value is 16 µg/mL (≈ 14.2 µM). The “MIC MRSP” value in data set [4] was 4 µg/mL (≈ 3.55 µM). Further, in data set [5], the “MIC PA” value was determined as 16 µg/mL (≈ 14.2 µM).

Turning to `CCCCN(CC(N)=O)C(=O)CN(CCCCN)C(=O)CN(Cc1cccc2ccccc12)C(=O)CN(CCCCN)C(=O)CN(Cc1ccc(C)cc1)C(=O)CN(Cc1cccc2ccccc12)C(=O)CNC(=O)CNCCCCN` [compound 2] (H-[Nlys]G[N(1-naphthylmethyl)Gly][N(4-MeBn)Gly][Nlys][N(1-naphthylmethyl)Gly][Nlys][NBuGly]-NH2; N-terminus assumed), the “MIC MSSP” value in data set [1] is reported as 16 µg/mL (≈ 14.2 µM). The “HA, percentage of hemolysis at 150 µM” value in data set [2] is listed as 48%. Moreover, the “MIC SA” value in data set [3] was 16 µg/mL (≈ 14.2 µM). The “MIC MRSP” value in data set [4] was 8 µg/mL (≈ 7.1 µM). Further, the “MIC PA” value in data set [5] was found to be 64 µg/mL (≈ 56.8 µM).

As for `CCCCN(CC(N)=O)C(=O)CN(CCCCN)C(=O)CN(Cc1cccc2ccccc12)C(=O)CN(C)C(=O)CN(Cc1ccc(C)cc1)C(=O)CN(Cc1cccc2ccccc12)C(=O)CN(CCCCN)C(=O)CNCCCCN` [compound 9] (H-[Nlys][Nlys][N(1-naphthylmethyl)Gly][N(4-MeBn)Gly][Sar][N(1-naphthylmethyl)Gly][Nlys][NBuGly]-NH2; N-terminus assumed), the “MIC MSSP” value in data set [1] is reported as 4 µg/mL (≈ 3.5 µM). In addition, the “HA, percentage of hemolysis at 150 µM” value in data set [2] is 16%. For the same molecule, the “MIC SA” value in data set [3] was 16 µg/mL (≈ 14 µM). Also, the “MIC MRSP” value in data set [4] was found to be 4 µg/mL (≈ 3.5 µM). The “MIC PA” value in data set [5] is 32 µg/mL (≈ 28 µM).

With `CCCCN(CC(N)=O)C(=O)CN(CCCCN)C(=O)CN(Cc1cccc2ccccc12)C(=O)CN(CCCCN)C(=O)CN(Cc1ccc(C)cc1)C(=O)CN(Cc1cccc2ccccc12)C(=O)CN(CCCCN)C(=O)CN` [compound 1] (H-G[Nlys][N(1-naphthylmethyl)Gly][N(4-MeBn)Gly][Nlys][N(1-naphthylmethyl)Gly][Nlys][NBuGly]-NH2; N-terminus assumed), the “MIC MSSP” value in data set [1] turned out to be 4 µg/mL (≈ 3.55 µM). For the same molecule, the “HA, percentage of hemolysis at 150 µM” value in data set [2] is on record as 42%. In data set [3], the “MIC SA” value is reported as 16 µg/mL (≈ 14.2 µM). The “MIC MRSP” value in data set [4] is reported as 4 µg/mL (≈ 3.55 µM). Besides, the “MIC PA” value in data set [5] worked out at 32 µg/mL (≈ 28.4 µM).

With `CCCCN(CC(N)=O)C(=O)CN(CCCCN)C(=O)CNC(=O)CN(CCCCN)C(=O)CN(Cc1ccc(C)cc1)C(=O)CN(Cc1cccc2ccccc12)C(=O)CN(CCCCN)C(=O)CNCCCCN` [compound 6] (H-[Nlys][Nlys][N(1-naphthylmethyl)Gly][N(4-MeBn)Gly][Nlys]G[Nlys][NBuGly]-NH2; N-terminus assumed), the “MIC MSSP” value in data set [1] is >64 µg/mL. The “HA, percentage of hemolysis at 150 µM” value in data set [2] was 6%. In data set [3], the “MIC SA” value is reported as >64 µg/mL. Besides, the “MIC MRSP” value in data set [4] is reported as >64 µg/mL. The “MIC PA” value in data set [5] was >64 µg/mL.

Consider `CCCCN(CC(N)=O)C(=O)CN(CCCCN)C(=O)CN(Cc1cccc2ccccc12)C(=O)CNC(=O)CN(Cc1ccc(C)cc1)C(=O)CN(Cc1cccc2ccccc12)C(=O)CN(CCCCN)C(=O)CNCCCCN` [compound 5] (H-[Nlys][Nlys][N(1-naphthylmethyl)Gly][N(4-MeBn)Gly]G[N(1-naphthylmethyl)Gly][Nlys][NBuGly]-NH2; N-terminus assumed), for which, in data set [1], the “MIC MSSP” value is given as 4 µg/mL (≈ 3.55 µM). The “HA, percentage of hemolysis at 150 µM” value in data set [2] was 25%. Also, in data set [3], the “MIC SA” value turned out to be 32 µg/mL (≈ 28.4 µM). The “MIC MRSP” value in data set [4] was 4 µg/mL (≈ 3.55 µM). Moreover, the “MIC PA” value in data set [5] came to 16 µg/mL (≈ 14.2 µM).

`CCCCN(CC(N)=O)C(=O)CN(CCCCN)C(=O)CN(Cc1cccc2ccccc12)C(=O)CN(Cc1cccc2ccccc12)C(=O)CN(Cc1ccc(C)cc1)C(=O)CN(Cc1cccc2ccccc12)C(=O)CN(CCCCN)C(=O)CNCCCCN` [compound 11] (H-[Nlys][Nlys][N(1-naphthylmethyl)Gly][N(4-MeBn)Gly][N(1-naphthylmethyl)Gly][N(1-naphthylmethyl)Gly][Nlys][NBuGly]-NH2; N-terminus assumed): the “MIC MSSP” value in data set [1] worked out at 8 µg/mL (≈ 6.31 µM). Also, the “HA, percentage of hemolysis at 150 µM” value in data set [2] is 87%. Moreover, the “MIC SA” value in data set [3] worked out at 8 µg/mL (≈ 6.31 µM). For the same molecule, the “MIC MRSP” value in data set [4] is recorded as 8 µg/mL (≈ 6.31 µM). For the same molecule, the “MIC PA” value in data set [5] was 16 µg/mL (≈ 12.6 µM).

Regarding `CCCCN(CC(N)=O)C(=O)CN(CCCCN)C(=O)CN(Cc1cccc2ccccc12)C(=O)CN(CCCCN)C(=O)CN(Cc1ccc(C)cc1)C(=O)CNC(=O)CN(CCCCN)C(=O)CNCCCCN` [compound 3] (H-[Nlys][Nlys]G[N(4-MeBn)Gly][Nlys][N(1-naphthylmethyl)Gly][Nlys][NBuGly]-NH2; N-terminus assumed), the “MIC MSSP” value in data set [1] was 64 µg/mL (≈ 60.5 µM). For the same molecule, the “HA, percentage of hemolysis at 150 µM” value in data set [2] amounted to 56%. Further, in data set [3], the “MIC SA” value was >64 µg/mL. In data set [4], the “MIC MRSP” value is recorded as 64 µg/mL (≈ 60.5 µM). In addition, the “MIC PA” value in data set [5] is >64 µg/mL.

Turning to `CCCCN(CC(N)=O)C(=O)CN(CCCCN)C(=O)CN(Cc1cccc2ccccc12)C(=O)CN(Cc1ccc(C)cc1)C(=O)CN(Cc1ccc(C)cc1)C(=O)CN(Cc1cccc2ccccc12)C(=O)CN(CCCCN)C(=O)CNCCCCN` [compound 10] (H-[Nlys][Nlys][N(1-naphthylmethyl)Gly][N(4-MeBn)Gly][N(4-MeBn)Gly][N(1-naphthylmethyl)Gly][Nlys][NBuGly]-NH2; N-terminus assumed), the “MIC MSSP” value in data set [1] was determined as 8 µg/mL (≈ 6.5 µM). In data set [2], the “HA, percentage of hemolysis at 150 µM” value came to 69%. Moreover, in data set [3], the “MIC SA” value was 8 µg/mL (≈ 6.5 µM). The “MIC MRSP” value in data set [4] is 8 µg/mL (≈ 6.5 µM). Further, the “MIC PA” value in data set [5] turned out to be 16 µg/mL (≈ 13 µM).
